Laboratory results as given in patent publication US4740601A, “Imidazole derivatives having antimicrobial activities” (SS Pharmaceutical Co., Ltd., priority 1985, dated 1988).
Converted amounts (≈) assume the structure as drawn.

System: Streptococcus faecalis IFO 12964
Experiment: antimicrobial activity, MIC
Assay type: cell-based
Conditions: Enterococcus faecalis, IFO12964, Streptococcus faecalis IFO 12964; read-out: MIC

Row | SMILES | MIC [µg/mL]
1 | CCCCCCOc1ccccc1C(=CCl)n1ccnc1 (single isomer, unassigned) [Compound 83] | 12.5 (≈ 41 µM)

System: Candida albicans Yu-1200
Experiment: antimicrobial activity, MIC
Assay type: cell-based
Conditions: YU1200, read-out: MIC

Row | SMILES | MIC [µg/mL]
2 | CCCCCCOc1ccccc1C(=CCl)n1ccnc1 (single isomer, unassigned) [Compound 83] | 12.5 (≈ 41 µM)

System: Fusarium moniliforme IAM 5062
Experiment: antimicrobial activity, MIC
Assay type: cell-based
Conditions: Fusarium verticillioides, IAM5062, Fusarium moniliforme IAM 5062; read-out: MIC

Row | SMILES | MIC [µg/mL]
3 | CCCCCCOc1ccccc1C(=CCl)n1ccnc1 (single isomer, unassigned) [Compound 83] | 25 (≈ 82 µM)

System: Staphylococcus aureus Terajima
Experiment: antimicrobial activity, MIC
Assay type: cell-based
Conditions: Staphylococcus aureus, read-out: MIC

Row | SMILES | MIC [µg/mL]
4 | CCCCCCOc1ccccc1C(=CCl)n1ccnc1 (single isomer, unassigned) [Compound 83] | 6.25 (≈ 20.5 µM)

System: Epidermophyton floccosum IFO 9045
Experiment: antimicrobial activity, MIC
Assay type: cell-based
Conditions: Epidermophyton floccosum, IFO9045, Epidermophyton floccosum IFO 9045; read-out: MIC

Row | SMILES | MIC [µg/mL]
5 | CCCCCCOc1ccccc1C(=CCl)n1ccnc1 (single isomer, unassigned) [Compound 83] | 6.25 (≈ 20.5 µM)

System: Microsporum gypseum IFO 8231
Experiment: antimicrobial activity, MIC
Assay type: cell-based
Conditions: Nannizzia gypsea, IFO8231, Microsporum gypseum IFO 8231; read-out: MIC

Row | SMILES | MIC [µg/mL]
6 | CCCCCCOc1ccccc1C(=CCl)n1ccnc1 (single isomer, unassigned) [Compound 83] | 1.56 (≈ 5.12 µM)

System: Bacillus subtilis ATCC 6633
Experiment: antimicrobial activity, MIC
Assay type: cell-based
Conditions: Bacillus subtilis, ATCC6633, Bacillus subtilis ATCC 6633; read-out: MIC

Row | SMILES | MIC [µg/mL]
7 | CCCCCCOc1ccccc1C(=CCl)n1ccnc1 (single isomer, unassigned) [Compound 83] | 6.25 (≈ 20.5 µM)

System: Gibberella fujikuroi IAM 8046
Experiment: antimicrobial activity, MIC
Assay type: cell-based
Conditions: Fusarium fujikuroi, IAM8046, Gibberella fujikuroi IAM 8046; read-out: MIC

Row | SMILES | MIC [µg/mL]
8 | CCCCCCOc1ccccc1C(=CCl)n1ccnc1 (single isomer, unassigned) [Compound 83] | 25 (≈ 82 µM)

System: Staphylococcus aureus FDA 209P
Experiment: antimicrobial activity, MIC
Assay type: cell-based
Conditions: Staphylococcus aureus, FDA209P, read-out: MIC

Row | SMILES | MIC [µg/mL]
9 | CCCCCCOc1ccccc1C(=CCl)n1ccnc1 (single isomer, unassigned) [Compound 83] | 12.5 (≈ 41 µM)

System: Helminthosporium sesamum IAM 5012
Experiment: antimicrobial activity, MIC
Assay type: cell-based
Conditions: Helminthosporium, IAM5012, Helminthosporium sesamum IAM 5012; read-out: MIC

Row | SMILES | MIC [µg/mL]
10 | CCCCCCOc1ccccc1C(=CCl)n1ccnc1 (single isomer, unassigned) [Compound 83] | 6.25 (≈ 20.5 µM)

System: Staphylococcus epidermidis ATCC 12228
Experiment: antimicrobial activity, MIC
Assay type: cell-based
Conditions: Staphylococcus epidermidis, ATCC12228, Staphylococcus epidermidis ATCC 12228; read-out: MIC

Row | SMILES | MIC [µg/mL]
11 | CCCCCCOc1ccccc1C(=CCl)n1ccnc1 (single isomer, unassigned) [Compound 83] | 6.25 (≈ 20.5 µM)

System: Cladosporium fulvum IAM 5006
Experiment: antimicrobial activity, MIC
Assay type: cell-based
Conditions: Fulvia fulva, IAM5006, Cladosporium fulvum IAM 5006; read-out: MIC

Row | SMILES | MIC [µg/mL]
12 | CCCCCCOc1ccccc1C(=CCl)n1ccnc1 (single isomer, unassigned) [Compound 83] | 12.5 (≈ 41 µM)

System: Pyricularia oryzae IAM 5016
Experiment: microbe, parasite or virus in culture
Assay type: cell-based
Conditions: Pyricularia oryzae, IAM5016, Pyricularia oryzae IAM 5016

Row | SMILES | MIC [µg/mL]
13 | CCCCCCOc1ccccc1C(=CCl)n1ccnc1 (single isomer, unassigned) [Compound 83] | < 0.2

System: Trichophyton mentagrophytes QM 248
Experiment: antimicrobial activity, MIC
Assay type: cell-based
Conditions: Trichophyton mentagrophytes, QM248, Trichophyton mentagrophytes QM 248; read-out: MIC

Row | SMILES | MIC [µg/mL]
14 | CCCCCCOc1ccccc1C(=CCl)n1ccnc1 (single isomer, unassigned) [Compound 83] | < 0.2

System: Penicillium chrysogenum ATCC 6010
Experiment: antimicrobial activity, MIC
Assay type: cell-based
Conditions: Penicillium chrysogenum, ATCC6010, Penicillium chrysogenum ATCC 6010; read-out: MIC

Row | SMILES | MIC [µg/mL]
15 | CCCCCCOc1ccccc1C(=CCl)n1ccnc1 (single isomer, unassigned) [Compound 83] | 25 (≈ 82 µM)

System: Debaryomyces kloeckeri IFO 0015
Experiment: antimicrobial activity, MIC
Assay type: cell-based
Conditions: IFO0015, read-out: MIC

Row | SMILES | MIC [µg/mL]
16 | CCCCCCOc1ccccc1C(=CCl)n1ccnc1 (single isomer, unassigned) [Compound 83] | 6.25 (≈ 20.5 µM)

System: Micrococcus lysodeixticus IFO 3333
Experiment: antimicrobial activity, MIC
Assay type: cell-based
Conditions: Micrococcus, IFO3333, Micrococcus lysodeixticus IFO 3333; read-out: MIC

Row | SMILES | MIC [µg/mL]
17 | CCCCCCOc1ccccc1C(=CCl)n1ccnc1 (single isomer, unassigned) [Compound 83] | 1.56 (≈ 5.12 µM)

System: Microsporum cookei IFO 8303
Experiment: antimicrobial activity, MIC
Assay type: cell-based
Conditions: Paraphyton cookei, IFO8303, Microsporum cookei IFO 8303; read-out: MIC

Row | SMILES | MIC [µg/mL]
18 | CCCCCCOc1ccccc1C(=CCl)n1ccnc1 (single isomer, unassigned) [Compound 83] | 6.25 (≈ 20.5 µM)

System: Staphylococcus aureus Smith
Experiment: antimicrobial activity, MIC
Assay type: cell-based
Conditions: Staphylococcus aureus, read-out: MIC

Row | SMILES | MIC [µg/mL]
19 | CCCCCCOc1ccccc1C(=CCl)n1ccnc1 (single isomer, unassigned) [Compound 83] | 12.5 (≈ 41 µM)

System: Candida albicans NHL 4019
Experiment: antimicrobial activity, MIC
Assay type: cell-based
Conditions: Candida albicans, NHL4019, Candida albicans NHL 4019; read-out: MIC

Row | SMILES | MIC [µg/mL]
20 | CCCCCCOc1ccccc1C(=CCl)n1ccnc1 (single isomer, unassigned) [Compound 83] | 50 (≈ 164 µM)

System: Saccharomyces ruxii 6507
Experiment: antimicrobial activity, MIC
Assay type: cell-based
Conditions: Saccharomyces ruxii 6507; read-out: MIC

Row | SMILES | MIC [µg/mL]
21 | CCCCCCOc1ccccc1C(=CCl)n1ccnc1 (single isomer, unassigned) [Compound 83] | < 0.2

System: Trichophyton rubrum NHL J
Experiment: antimicrobial activity, MIC
Assay type: cell-based
Conditions: Trichophyton rubrum, Trichophyton rubrum NHL J; read-out: MIC

Row | SMILES | MIC [µg/mL]
22 | CCCCCCOc1ccccc1C(=CCl)n1ccnc1 (single isomer, unassigned) [Compound 83] | < 0.2

System: Sarcina lutea ATCC 9341
Experiment: antimicrobial activity, MIC
Assay type: cell-based
Conditions: Micrococcus luteus, ATCC9341, Sarcina lutea ATCC 9341; read-out: MIC

Row | SMILES | MIC [µg/mL]
23 | CCCCCCOc1ccccc1C(=CCl)n1ccnc1 (single isomer, unassigned) [Compound 83] | 3.12 (≈ 10.2 µM)

System: Aspergillus oryzae IMF 4014
Experiment: antimicrobial activity, MIC
Assay type: cell-based
Conditions: Aspergillus oryzae, IMF4014, Aspergillus oryzae IMF 4014; read-out: MIC

Row | SMILES | MIC [µg/mL]
24 | CCCCCCOc1ccccc1C(=CCl)n1ccnc1 (single isomer, unassigned) [Compound 83] | 12.5 (≈ 41 µM)

System: Microsporum audounii IFO 6074
Experiment: antimicrobial activity, MIC
Assay type: cell-based
Conditions: Microsporum, IFO6074, Microsporum audounii IFO 6074; read-out: MIC

Row | SMILES | MIC [µg/mL]
25 | CCCCCCOc1ccccc1C(=CCl)n1ccnc1 (single isomer, unassigned) [Compound 83] | < 0.2

System: Saccharomyces cerevisiae ATCC 9763
Experiment: antimicrobial activity, MIC
Assay type: cell-based
Conditions: Saccharomyces cerevisiae, ATCC9763, Saccharomyces cerevisiae ATCC 9763; read-out: MIC

Row | SMILES | MIC [µg/mL]
26 | CCCCCCOc1ccccc1C(=CCl)n1ccnc1 (single isomer, unassigned) [Compound 83] | 25 (≈ 82 µM)

System: Aspergillus niger ATCC 9642
Experiment: antimicrobial activity, MIC
Assay type: cell-based
Conditions: Aspergillus niger, ATCC9642, Aspergillus niger ATCC 9642; read-out: MIC

Row | SMILES | MIC [µg/mL]
27 | CCCCCCOc1ccccc1C(=CCl)n1ccnc1 (single isomer, unassigned) [Compound 83] | 12.5 (≈ 41 µM)

System: Trichophyton mentagrophytes IFO 5812
Experiment: antimicrobial activity, MIC
Assay type: cell-based
Conditions: Trichophyton mentagrophytes, IFO5812, Trichophyton mentagrophytes IFO 5812; read-out: MIC

Row | SMILES | MIC [µg/mL]
28 | CCCCCCOc1ccccc1C(=CCl)n1ccnc1 (single isomer, unassigned) [Compound 83] | < 0.2

System: Trichophyton tonsurans IFO 5928
Experiment: antimicrobial activity, MIC
Assay type: cell-based
Conditions: Trichophyton tonsurans, IFO5928, Trichophyton tonsurans IFO 5928; read-out: MIC

Row | SMILES | MIC [µg/mL]
29 | CCCCCCOc1ccccc1C(=CCl)n1ccnc1 (single isomer, unassigned) [Compound 83] | < 0.2
